Data on 4 compounds can be found in ChEMBL document CHEMBL1143711, “Design, synthesis, and evaluation of potent, structurally novel peroxisome proliferator-activated receptor (PPAR) delta-selective agonists” (Bioorg Med Chem, 2007).

In general, EC50 refers to the concentration that produces a half-maximal response. Low readings indicate an effect from little substance, high ones a need for much substance.

Test [1] addresses T1, Peroxisome proliferator-activated receptor gamma (Homo sapiens, UniProt P37231).
T1 sequence (P37231 whole entry): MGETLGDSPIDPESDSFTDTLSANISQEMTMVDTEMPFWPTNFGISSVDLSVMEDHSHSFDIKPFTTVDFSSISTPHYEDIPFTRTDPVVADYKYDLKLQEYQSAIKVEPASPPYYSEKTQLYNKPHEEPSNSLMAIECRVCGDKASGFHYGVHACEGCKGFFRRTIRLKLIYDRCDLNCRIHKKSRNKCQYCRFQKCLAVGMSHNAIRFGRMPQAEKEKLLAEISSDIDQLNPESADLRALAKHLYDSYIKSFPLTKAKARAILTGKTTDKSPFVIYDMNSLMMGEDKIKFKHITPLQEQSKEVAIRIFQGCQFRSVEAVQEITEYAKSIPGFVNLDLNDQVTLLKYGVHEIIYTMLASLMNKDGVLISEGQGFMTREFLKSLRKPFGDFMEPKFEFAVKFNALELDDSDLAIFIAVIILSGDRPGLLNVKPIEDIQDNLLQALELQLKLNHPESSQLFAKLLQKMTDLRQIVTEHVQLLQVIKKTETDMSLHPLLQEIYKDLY
It is filed as cell-based, HEK293.

Test [2] concerns the target T2, Peroxisome proliferator-activated receptor alpha (Homo sapiens, UniProt Q07869).
T2 sequence (Q07869 whole entry): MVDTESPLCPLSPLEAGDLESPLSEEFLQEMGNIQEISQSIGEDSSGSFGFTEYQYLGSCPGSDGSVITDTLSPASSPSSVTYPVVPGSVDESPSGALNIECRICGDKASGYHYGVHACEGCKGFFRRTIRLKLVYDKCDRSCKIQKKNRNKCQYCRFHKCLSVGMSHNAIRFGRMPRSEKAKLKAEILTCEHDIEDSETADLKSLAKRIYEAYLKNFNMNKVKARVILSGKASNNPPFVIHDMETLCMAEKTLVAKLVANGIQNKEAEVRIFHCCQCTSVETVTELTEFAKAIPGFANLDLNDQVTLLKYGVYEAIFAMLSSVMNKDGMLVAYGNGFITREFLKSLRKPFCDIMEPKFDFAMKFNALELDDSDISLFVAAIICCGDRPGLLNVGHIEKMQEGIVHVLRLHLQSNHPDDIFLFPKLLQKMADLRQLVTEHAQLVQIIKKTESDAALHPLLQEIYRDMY
In words: Effect on PPARalpha transactivation activity in HEK293 cells. The format is cell-based.

Test [3] deals with T3, Peroxisome proliferator-activated receptor delta (Homo sapiens, UniProt Q03181).
T3 sequence (Q03181 whole entry): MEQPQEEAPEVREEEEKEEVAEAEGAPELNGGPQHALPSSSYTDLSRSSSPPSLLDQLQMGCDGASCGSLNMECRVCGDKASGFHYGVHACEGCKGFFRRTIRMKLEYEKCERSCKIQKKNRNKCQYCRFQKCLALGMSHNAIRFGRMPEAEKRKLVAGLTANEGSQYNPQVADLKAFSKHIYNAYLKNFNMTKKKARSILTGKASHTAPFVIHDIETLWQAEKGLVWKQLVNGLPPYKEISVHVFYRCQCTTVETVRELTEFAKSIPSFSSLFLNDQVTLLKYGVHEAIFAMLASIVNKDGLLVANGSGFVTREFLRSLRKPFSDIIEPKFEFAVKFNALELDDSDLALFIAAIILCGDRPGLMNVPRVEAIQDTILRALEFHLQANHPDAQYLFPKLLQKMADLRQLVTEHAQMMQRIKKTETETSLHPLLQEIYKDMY

Structures are written as SMILES.

On to `COc1ccc(CC(C)C(=O)O)cc1CNC(=O)c1ccc(C(F)(F)F)cc1` (stereo not given), for which, in test [1], the EC50 is > 10 µM.

For the compound `COc1ccc(CCC(=O)O)cc1CNC(=O)c1ccc(C(F)(F)F)cc1`, in test [1], the EC50 was > 10 µM.

For `CCC(Cc1ccc(OCc2ccccc2)c(CNC(=O)c2ccc(C(F)(F)F)cc2)c1)C(=O)O` (stereo not given), in test [2], the EC50 was > 10 µM.

In the case of `CCCCOc1ccc(C[C@@H](CC)C(=O)O)cc1CNC(=O)c1ccc(C(F)(F)F)cc1F`, the EC50 was found to be 7 µM in test [1] and 0.0083 µM in test [3].
